Laboratory results published in PubChem BioAssay (NCI).
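Growth conditions: 96-well plates. Treatment: test compound, 48 hours, 5 concentrations. Analysis: linear interpolation between bracketing concentrations; unreached endpoints set to highest concentration. Here, GI50 denotes the concentration required for 50% inhibition of growth. At the TGI there is no net growth.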

Tests used:
Test in all cases: inhibition of tumour cell growth, NCI panel, 48 h
OVCAR-8 ovarian = system: OVCAR-8 ovarian
U251 CNS = system: U251 CNS
MOLT-4 leukemia = system: MOLT-4 leukemia
SF-295 CNS = system: SF-295 CNS
NCI-H226 lung = system: NCI-H226 lung
RXF 393 renal = system: RXF 393 renal
SK-MEL-2 melanoma = system: SK-MEL-2 melanoma
PC-3 prostate = system: PC-3 prostate
MDA-MB-468 breast = system: MDA-MB-468 breast
KM12 colon = system: KM12 colon
DU-145 prostate = system: DU-145 prostate
OVCAR-5 ovarian = system: OVCAR-5 ovarian
NCI-H23 lung = system: NCI-H23 lung
EKVX NSCLC = system: EKVX NSCLC
HCT-116 colon = system: HCT-116 colon
786-0 renal = system: 786-0 renal
MDA-MB-435 = system: MDA-MB-435
SK-MEL-5 melanoma = system: SK-MEL-5 melanoma
SN12C renal = system: SN12C renal
HCT-15 colon = system: HCT-15 colon
IGROV1 ovarian = system: IGROV1 ovarian
HS 578T breast = system: HS 578T breast
ACHN renal = system: ACHN renal
SF-539 CNS = system: SF-539 CNS
NCI-H460 lung = system: NCI-H460 lung
NCI-H522 lung = system: NCI-H522 lung
HCC-2998 colon = system: HCC-2998 colon
CCRF-CEM leukemia = system: CCRF-CEM leukemia
SW-620 colon = system: SW-620 colon
UACC-257 melanoma = system: UACC-257 melanoma

Cn1cc(-c2cc(N)n3nc(-c4c[nH]c5ccccc45)cc3n2)c2ccccc21
TGI (OVCAR-8 ovarian): 8.25 µM | GI50 (U251 CNS): 2040 nM | TGI (U251 CNS): 4.04 µM | GI50 (MOLT-4 leukemia): 2500 nM | TGI (MOLT-4 leukemia): 8.28 µM | GI50 (SF-295 CNS): 1780 nM | TGI (SF-295 CNS): 3.4 µM | GI50 (NCI-H226 lung): 11.4 µM | TGI (NCI-H226 lung): 37.2 µM | GI50 (RXF 393 renal): 1690 nM | TGI (RXF 393 renal): 3.96 µM | GI50 (SK-MEL-2 melanoma): 4.72 µM | TGI (SK-MEL-2 melanoma): 17.2 µM | GI50 (PC-3 prostate): 3.38 µM | TGI (PC-3 prostate): 14.4 µM | GI50 (MDA-MB-468 breast): 1630 nM | TGI (MDA-MB-468 breast): 3.11 µM | GI50 (KM12 colon): 1940 nM | TGI (KM12 colon): 3.99 µM | GI50 (DU-145 prostate): 3.61 µM | TGI (DU-145 prostate): 13.5 µM | GI50 (OVCAR-5 ovarian): 2050 nM | TGI (OVCAR-5 ovarian): 4.64 µM | GI50 (NCI-H23 lung): 2360 nM | TGI (NCI-H23 lung): 5.83 µM | GI50 (EKVX NSCLC): 2480 nM | TGI (EKVX NSCLC): 7.15 µM | GI50 (HCT-116 colon): 1900 nM | TGI (HCT-116 colon): 3.54 µM | GI50 (786-0 renal): 1680 nM | TGI (786-0 renal): 3.26 µM | GI50 (MDA-MB-435): 1920 nM | TGI (MDA-MB-435): 3.92 µM | GI50 (SK-MEL-5 melanoma): 1770 nM | TGI (SK-MEL-5 melanoma): 3.43 µM | GI50 (SN12C renal): 3.47 µM | TGI (SN12C renal): 12.4 µM | GI50 (HCT-15 colon): 1640 nM | TGI (HCT-15 colon): 3.3 µM | GI50 (IGROV1 ovarian): 2640 nM | TGI (IGROV1 ovarian): 6.84 µM | GI50 (HS 578T breast): 5.53 µM | TGI (HS 578T breast): 45.4 µM | GI50 (ACHN renal): 2220 nM | TGI (ACHN renal): 4.85 µM | GI50 (SF-539 CNS): 1810 nM | TGI (SF-539 CNS): 3.21 µM | GI50 (NCI-H460 lung): 1950 nM | TGI (NCI-H460 lung): 3.83 µM | GI50 (NCI-H522 lung): 1690 nM | TGI (NCI-H522 lung): 3.33 µM | GI50 (HCC-2998 colon): 1790 nM | TGI (HCC-2998 colon): 3.34 µM | GI50 (CCRF-CEM leukemia): 2770 nM | TGI (CCRF-CEM leukemia): 24 µM | GI50 (SW-620 colon): 1770 nM | TGI (SW-620 colon): 3.45 µM | GI50 (UACC-257 melanoma): 1840 nM | TGI (UACC-257 melanoma): 3.45 µM
